Measured values published in patent publication US10385024B2, “Compounds and methods for inhibiting NHE-mediated antiport in the treatment of disorders associated with fluid retention or salt overload and gastrointestinal tract disorders” (Ardelyx, Inc., priority 2012, dated 2019).

Assays:
[1] = molecular target: T1, human NHE-3 (Homo sapiens, UniProt P48764); test: Cell-based assay of NHE-3 activity (human NHE3 inhibition assay); details: OK cells with human NHE-3 gene, BCECF pH dye, 0-30 μM test compound; for IC50: read-out: Human NHE3 pIC50 (converted)
T1 construct: expressed in transfected cells; host or cells: Opossum kidney (OK) cells (ATCC), transfected by electroporation
T1 sequence (P48764 26-834): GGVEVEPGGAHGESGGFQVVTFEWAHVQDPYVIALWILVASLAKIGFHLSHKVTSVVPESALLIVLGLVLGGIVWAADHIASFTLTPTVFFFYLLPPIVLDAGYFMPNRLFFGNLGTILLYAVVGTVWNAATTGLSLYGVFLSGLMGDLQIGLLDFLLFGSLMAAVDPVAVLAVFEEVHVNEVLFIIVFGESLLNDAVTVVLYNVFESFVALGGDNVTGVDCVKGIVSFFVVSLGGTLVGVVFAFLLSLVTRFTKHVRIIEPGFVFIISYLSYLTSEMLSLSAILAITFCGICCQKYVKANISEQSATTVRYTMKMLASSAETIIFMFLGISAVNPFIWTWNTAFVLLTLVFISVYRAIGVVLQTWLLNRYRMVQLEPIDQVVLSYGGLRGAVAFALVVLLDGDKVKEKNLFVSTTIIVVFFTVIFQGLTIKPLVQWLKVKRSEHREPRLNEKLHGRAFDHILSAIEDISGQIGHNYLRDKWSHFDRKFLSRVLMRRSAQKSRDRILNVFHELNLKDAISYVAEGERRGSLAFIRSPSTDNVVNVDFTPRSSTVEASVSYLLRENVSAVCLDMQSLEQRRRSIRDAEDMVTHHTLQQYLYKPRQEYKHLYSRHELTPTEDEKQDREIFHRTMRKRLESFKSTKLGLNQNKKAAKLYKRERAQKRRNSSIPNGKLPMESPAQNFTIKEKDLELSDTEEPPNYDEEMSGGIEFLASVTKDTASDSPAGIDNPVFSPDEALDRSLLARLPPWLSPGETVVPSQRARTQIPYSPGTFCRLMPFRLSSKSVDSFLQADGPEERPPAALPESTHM
Procedure: (§1) Rat or human NHE-3-mediated Na^+-dependent H^+ antiport was measured using a modification of the pH sensitive dye method originally reported by Paradiso (Proc. Natl. Acad. Sci. USA. (1984) 81(23): 7436-7440). Opossum kidney (OK) cells were obtained from the ATCC and propagated per their instructions. The rat NHE-3 gene (GenBank M85300) or the human NHE-3 gene (GenBank NM_004174.1) was introduced into OK cells via electroporation, and cells were seeded into 96 well plates and grown overnight. Medium was aspirated from the wells, cells were washed twice with NaCl-HEPES buffer (100 mM NaCl, 50 mM HEPES, 10 mM glucose, 5 mM KCl, 2 mM CaCl2, 1 mM MgCl2, pH 7.4), then incubated for 30 min at room temperature with NH4Cl-HEPES buffer (20 mM NH4Cl, 80 mM NaCl, 50 mM HEPES, 5 mM KCl, 2 mM CaCl2, 1 mM MgCl2, pH 7.4) containing 5 μM bis(acetoxymethyl) 3,3′-(3′,6′-bis(acetoxymethoxy)-5-((acetoxymethoxy)carbonyl)-3-oxo-3H-spiro[isobenzofuran-1,9′-xanthene]-2′,7′-diyl)dipropanoate (BCECF-AM). Cells were washed twice with Ammonium free, Na^+-free HEPES (100 mM choline, 50 mM HEPES, 10 mM glucose, 5 mM KCl, 2 mM CaCl2, 1 mM MgCl2, pH 7.4) and incubated in the same buffer for 10 minutes at room temperature to lower intracellular pH. […] Initial rates were plotted as the average 2 or more replicates, and pIC50 values were estimated using GraphPad Prism.

[2] = molecular target: T2, Rat NHE-3 (Rattus norvegicus, UniProt P26433); test: Cell-based assay of NHE-3 activity (rat NHE-3 prompt inhibition); details: OK cells with rat NHE-3 gene, compound present during pH recovery; for IC50: read-out: Rat NHE3 pIC50 (prompt) (converted)
T2 construct: expressed in transfected cells; host or cells: Opossum kidney (OK) cells (ATCC), transfected by electroporation
T2 sequence (P26433 29-831): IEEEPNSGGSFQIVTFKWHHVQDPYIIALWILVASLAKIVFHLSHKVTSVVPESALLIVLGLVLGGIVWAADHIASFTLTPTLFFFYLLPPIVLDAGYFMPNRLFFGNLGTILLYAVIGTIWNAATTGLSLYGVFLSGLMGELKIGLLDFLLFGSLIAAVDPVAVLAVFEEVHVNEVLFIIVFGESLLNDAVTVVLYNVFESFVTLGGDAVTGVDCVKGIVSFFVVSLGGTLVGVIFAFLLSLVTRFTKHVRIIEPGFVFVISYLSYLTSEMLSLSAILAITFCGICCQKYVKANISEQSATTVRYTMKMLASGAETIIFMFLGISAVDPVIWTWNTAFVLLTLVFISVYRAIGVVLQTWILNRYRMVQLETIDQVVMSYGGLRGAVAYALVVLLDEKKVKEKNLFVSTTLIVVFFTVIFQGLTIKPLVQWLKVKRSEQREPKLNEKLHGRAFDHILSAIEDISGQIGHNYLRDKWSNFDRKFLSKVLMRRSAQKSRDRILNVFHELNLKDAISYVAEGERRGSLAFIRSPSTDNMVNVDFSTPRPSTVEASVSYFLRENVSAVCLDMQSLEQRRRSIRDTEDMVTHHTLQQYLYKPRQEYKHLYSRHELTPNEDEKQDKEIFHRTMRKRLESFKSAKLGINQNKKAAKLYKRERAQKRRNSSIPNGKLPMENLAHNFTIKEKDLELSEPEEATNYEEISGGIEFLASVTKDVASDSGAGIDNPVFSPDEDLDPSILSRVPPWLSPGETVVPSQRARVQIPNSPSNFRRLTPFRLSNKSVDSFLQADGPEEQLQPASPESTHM
Procedure: as §1

[3] = molecular target: T2, Rat NHE-3; test: Cell-based assay of NHE-3 activity (persistent inhibition, after washout); details: OK cells with rat NHE-3 gene, 60 min incubation, recovery initiated 40 min after compound washout; for IC50: read-out: Rat NHE3 pIC50 (persistent) (converted)
Procedure: The ability of compounds to inhibit Rat NHE-3-mediated Na^+-dependent H^+ antiport after application and washout was measured using a modification of the pH sensitive dye method described above in Example 74. Opossum kidney (OK) cells were obtained from the ATCC and propagated per their instructions. The rat NHE-3 gene was introduced into OK cells via electroporation, and cells were seeded into 96 well plates and grown overnight. Medium was aspirated from the wells, cells were washed twice with NaCl-HEPES buffer (100 mM NaCl, 50 mM HEPES, 10 mM glucose, 5 mM KCl, 2 mM CaCl2, 1 mM MgCl2, pH 7.4), then overlayed with NaCl-HEPES buffer containing 0-30 μM test compound. After a 60 min incubation, the test drug containing buffer was aspirated from the cells, cells were washed twice with NaCl-HEPES buffer without drug, then incubated for 30 min at room temperature with NH4Cl-HEPES buffer (20 mM NH4Cl, 80 mM NaCl, 50 mM HEPES, 5 mM KCl, 2 mM CaCl2, 1 mM MgCl2, pH 7.4) containing 5 μM BCECF-AM. Cells were washed twice with ammonium free, Na^+-free HEPES (100 mM choline, 50 mM HEPES, 10 mM glucose, 5 mM KCl, 2 mM CaCl2, 1 mM MgCl2, pH 7.4) and incubated in the same buffer for 10 minutes at room temperature to lower intracellular pH. […] Initial rates were plotted as the average 2 or more replicates, and pIC50 values were estimated using GraphPad Prism.

Row | IC50 [1] [µM] | IC50 [2] [µM] | IC50 [3] [µM] | Human NHE3 pIC50 [1] | Rat NHE3 pIC50 (prompt) [2] | Rat NHE3 pIC50 (persistent) [3] | SMILES
1 | 0.1 to 10 | 0.1 to 10 | < 0.1 |  |  |  | CN1Cc2c(Cl)cc(Cl)cc2[C@H](c2cccc(S(=O)(=O)NCCOCCOCCNC(=O)CCC(CCC(=O)NCCOCCOCCNS(=O)(=O)c3cccc([C@@H]4CN(C)Cc5c(Cl)cc(Cl)cc54)c3)(CCC(=O)NCCOCCOCCNS(=O)(=O)c3cccc([C@@H]4CN(C)Cc5c(Cl)cc(Cl)cc54)c3)[N+](=O)[O-])c2)C1 [Example 1, N1,N7-bis(2-(2-(2-(3-((S)-6,8-dichloro-2-methyl-1,2,3,4-tetrahydroisoquinolin-4-yl)phenylsulfonamido)ethoxy)ethoxy)ethyl)-4-(3-(2-(2-(2-(3-((S)-6,8-dichloro-2-methyl-1,2,3,4-tetrahydroisoquinolin-4-yl)phenylsulfonamido)ethoxy)ethoxy)ethylamino)-3-oxopropyl)-4-nitroheptanediamide]
2 |  |  |  | C (C NHE3 pIC50 > 7) | B (B NHE3 pIC50 5-7) | B (B NHE3 pIC50 5-7) | CCCCCCCCOc1ccc(CNC(CCC(=O)NCCOCCOCCNS(=O)(=O)c2cccc([C@@H]3CN(C)Cc4c(Cl)cc(Cl)cc43)c2)(CCC(=O)NCCOCCOCCNS(=O)(=O)c2cccc([C@@H]3CN(C)Cc4c(Cl)cc(Cl)cc43)c2)CCC(=O)NCCOCCOCCNS(=O)(=O)c2cccc([C@@H]3CN(C)Cc4c(Cl)cc(Cl)cc43)c2)cc1 [Example 23]

Second part, the molecule before the results:

Row | SMILES | IC50 [1] [µM] | IC50 [2] [µM] | IC50 [3] [µM] | Human NHE3 pIC50 [1] | Rat NHE3 pIC50 (prompt) [2] | Rat NHE3 pIC50 (persistent) [3]
3 | CN1Cc2c(Cl)cc(Cl)cc2[C@H](c2cccc(S(=O)(=O)NCCOCCOCCOCCNC(=O)CCC(CCC(=O)NCCOCCOCCOCCNS(=O)(=O)c3cccc([C@@H]4CN(C)Cc5c(Cl)cc(Cl)cc54)c3)(CCC(=O)NCCOCCOCCOCCNS(=O)(=O)c3cccc([C@@H]4CN(C)Cc5c(Cl)cc(Cl)cc54)c3)NC(=O)c3ccc(-c4ccc(Cl)cc4)cc3)c2)C1 [Example 16, 4-(4′-chlorobiphenyl-4-ylcarboxamido)-4-(1-(3-((S)-6,8-dichloro-2-methyl-1,2,3,4-tetrahydroisoquinolin-4-yl)phenylsulfonamido)-13-oxo-3,6,9-trioxa-12-azapentadecan-15-yl)-N^1,N^7-bis(2-(2-(2-(2-(3-((S)-6,8-dichloro-2-methyl-1,2,3,4-tetrahydroisoquinolin-4-yl)phenylsulfonamido)ethoxy)ethoxy)ethoxy)ethyl)heptanediamide] | > 10 | 0.1 to 10 | 0.1 to 10 |  |  | 
4 | CCCCCCCCCCC(=O)NC(CCC(=O)NCCOCCOCCOCCNS(=O)(=O)c1cccc([C@@H]2CN(C)Cc3c(Cl)cc(Cl)cc32)c1)(CCC(=O)NCCOCCOCCOCCNS(=O)(=O)c1cccc([C@@H]2CN(C)Cc3c(Cl)cc(Cl)cc32)c1)CCC(=O)NCCOCCOCCOCCNS(=O)(=O)c1cccc([C@@H]2CN(C)Cc3c(Cl)cc(Cl)cc32)c1 [Example 15, 4-(1-(3-((S)-6,8-dichloro-2-methyl-1,2,3,4-tetrahydroisoquinolin-4-yl)phenylsulfonamido)-13-oxo-3,6,9-trioxa-12-azapentadecan-15-yl)-N^1,N^7-bis(2-(2-(2-(2-(3-((S)-6,8-dichloro-2-methyl-1,2,3,4-tetrahydroisoquinolin-4-yl)phenylsulfonamido)ethoxy)ethoxy)ethoxy)ethyl)-4-undecanamidoheptanediamide] | 0.1 to 10 | > 10 | 0.1 to 10 |  |  | 
5 | CN1Cc2c(Cl)cc(Cl)cc2[C@H](c2cccc(S(=O)(=O)NCCOCCOCCNC(=O)NCCN(CCNC(=O)NCCOCCOCCNS(=O)(=O)c3cccc([C@@H]4CN(C)Cc5c(Cl)cc(Cl)cc54)c3)C(=O)CCOCCOCCOCCOCCOCCOCCOCCOCCOCCC(=O)N(CCNC(=O)NCCOCCOCCNS(=O)(=O)c3cccc([C@@H]4CN(C)Cc5c(Cl)cc(Cl)cc54)c3)CCNC(=O)NCCOCCOCCNS(=O)(=O)c3cccc([C@@H]4CN(C)Cc5c(Cl)cc(Cl)cc54)c3)c2)C1 [Example 61] |  |  |  | C (C NHE3 pIC50 > 7) | B (B NHE3 pIC50 5-7) | B (B NHE3 pIC50 5-7)
